“And” between values parts separate entries of the source, which are not always exact repeats. Identical values can stand only once. Like-named read-outs stand apart in the source and are kept apart here.
Test system: AsPC-1 cells
Experiment: Cell proliferation assay, chemodrug + ATR inhibitor (Incucyte confluence, 72 h);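 further: underlying read-out for every value is AsPC-1 confluence after 72 h incubation at 37 °C and 5% CO2, divided by that well's starting confluence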
Conditions: for Curve bottom / Curve slope / Curve top: fitted dose-response curve; for Curve bottom / Curve top: relative response; for Raw data (confluence at 72 h/confluence at 0 h): Berzosertib experiment; for EC50: Homo sapiens
[1] = AsPC1, Experiment GEM+ATRi_dose1
[2] = AsPC1, Experiment GEM+ATRi_dose2
[3] = AsPC1, Experiment GEM+ATRi_dose3

Procedure: Cells were seeded at 5000 cells/well into 96-well flat bottom plates (Eppendorf) and allowed to attach overnight. […] Cells were incubated for 72 h at 37 °C and 5% CO2. Cell confluence readouts at 72 h were either normalized to their initial confluence using the Incucyte software (AsPC-1) or used without prior normalization (all others). […] Each experiment was performed in triplicates, the data was plotted as mean ± standard deviation (s.d.).

## CNCc1ccc(-c2cc(-c3nc(-c4ccc(S(=O)(=O)C(C)C)cc4)cnc3N)on2)cc1 [Berzosertib]
AsPC1, Experiment ATRi (ATR inhibitor alone)
  Curve bottom: 1.08 and 1.02 and 1.03
[1]
  Curve slope: 1.49 and 1.39 and 2.10
  Curve bottom: 1.02 and 0.99 and 0.96
  Curve top: 0.52 and 0.41 and 0.43
[2]
  Curve bottom: 1.02 and 0.89 and 0.87
  Curve top: 0.47 and 0.41
[3]
  Curve slope: 1.48 and 2.60 and 1.95
  Curve bottom: 1.02 and 0.71 and 0.76
  Curve top: 0.44 and 0.38 and 0.37
AsPC1, GEM 100 nM + ATRi 30 nM
  Response: 1.96
AsPC1, GEM 300 nM + ATRi 30 nM
  Response: 1.76
AsPC1, GEM 1000 nM + ATRi 30 nM
  Response: 1.64
AsPC1, GEM 3000 nM + ATRi 30 nM
  Response: 1.69
Replicate R2, titrated drug dose 100 nM
  Raw data (confluence at 72 h/confluence at 0 h): 1.63
Replicate R2, titrated drug dose 300 nM
  Raw data (confluence at 72 h/confluence at 0 h): 3.32
Replicate R2, titrated drug dose 1000 nM
  Raw data (confluence at 72 h/confluence at 0 h): 1.81
Replicate R2, titrated drug dose 3000 nM
  Raw data (confluence at 72 h/confluence at 0 h): 0.95
Replicate R2, titrated drug dose 10000 nM
  Raw data (confluence at 72 h/confluence at 0 h): 1.02
Replicate R3, titrated drug dose 3 nM
  Raw data (confluence at 72 h/confluence at 0 h): 3.53
Replicate R3, titrated drug dose 10 nM
  Raw data (confluence at 72 h/confluence at 0 h): 3.58
Replicate R3, titrated drug dose 30 nM
  Raw data (confluence at 72 h/confluence at 0 h): 3.44
Replicate R3, titrated drug dose 100 nM
  Raw data (confluence at 72 h/confluence at 0 h): 1.82
Replicate R3, titrated drug dose 300 nM
  Raw data (confluence at 72 h/confluence at 0 h): 3.31
Replicate R3, titrated drug dose 1000 nM
  Raw data (confluence at 72 h/confluence at 0 h): 1.82
Replicate R3, titrated drug dose 3000 nM
  Raw data (confluence at 72 h/confluence at 0 h): 0.98
Replicate R3, titrated drug dose 10000 nM
  Raw data (confluence at 72 h/confluence at 0 h): 1.08
Replicate R1, titrated drug dose 3 nM
  Raw data (confluence at 72 h/confluence at 0 h): 3.58
Replicate R1, titrated drug dose 10 nM
  Raw data (confluence at 72 h/confluence at 0 h): 3.42
Replicate R1, titrated drug dose 30 nM
  Raw data (confluence at 72 h/confluence at 0 h): 3.67
Replicate R1, titrated drug dose 100 nM
  Raw data (confluence at 72 h/confluence at 0 h): 3.44
Replicate R1, titrated drug dose 300 nM
  Raw data (confluence at 72 h/confluence at 0 h): 3.48
Replicate R1, titrated drug dose 1000 nM
  Raw data (confluence at 72 h/confluence at 0 h): 1.39
Replicate R1, titrated drug dose 3000 nM
  Raw data (confluence at 72 h/confluence at 0 h): 1.11
Replicate R1, titrated drug dose 10000 nM
  Raw data (confluence at 72 h/confluence at 0 h): 1.24
Replicate R2, titrated drug dose 3 nM
  Raw data (confluence at 72 h/confluence at 0 h): 3.47
Replicate R2, titrated drug dose 10 nM
  Raw data (confluence at 72 h/confluence at 0 h): 3.62
Replicate R2, titrated drug dose 30 nM
  Raw data (confluence at 72 h/confluence at 0 h): 3.68
GEM 0 nM, ATRi 30 nM
  Response: 3.26 and 3.50 and 3.35
GEM 0 nM, ATRi 300 nM
  Response: 3.38 and 2.28 and 2.67
GEM 1 nM + ATRi 30 nM
  Response: 3.40 and 3.47 and 3.32
GEM 1 nM + ATRi 100 nM
  Response: 3.25 and 2.45 and 2.30
GEM 1 nM + ATRi 300 nM
  Response: 3.17 and 2.72 and 2.68
GEM 3 nM + ATRi 30 nM
  Response: 3.21 and 3.37 and 3.20
GEM 3 nM + ATRi 100 nM
  Response: 3.16 and 3.42 and 3.23
GEM 3 nM + ATRi 300 nM
  Response: 3.33 and 2.50 and 2.49
GEM 10 nM + ATRi 30 nM
  Response: 3.02 and 3.24 and 3.22
GEM 10 nM + ATRi 100 nM
  Response: 2.95 and 3.25 and 2.97
GEM 10 nM + ATRi 300 nM
  Response: 2.69 and 2.35 and 2.32
GEM 30 nM + ATRi 30 nM
  Response: 2.26 and 2.69 and 2.57
GEM 30 nM + ATRi 100 nM
  Response: 2.27 and 2.08 and 1.96
GEM 30 nM + ATRi 300 nM
  Response: 2.06 and 1.65 and 1.60
GEM 100 nM + ATRi 30 nM
  Response: 1.68
GEM 100 nM + ATRi 100 nM
  Response: 1.81 and 1.49 and 1.48
GEM 100 nM + ATRi 300 nM
  Response: 1.53 and 1.40 and 1.31
GEM 300 nM + ATRi 30 nM
  Response: 1.65 and 1.49
GEM 300 nM + ATRi 100 nM
  Response: 1.60 and 1.52 and 1.44
GEM 300 nM + ATRi 300 nM
  Response: 1.48 and 1.38 and 1.24
GEM 1000 nM + ATRi 30 nM
  Response: 1.43 and 1.48
GEM 1000 nM + ATRi 100 nM
  Response: 1.53 and 1.41 and 1.39
GEM 1000 nM + ATRi 300 nM
  Response: 1.41 and 1.36 and 1.30
GEM 3000 nM + ATRi 30 nM
  Response: 1.40 and 1.48
GEM 3000 nM + ATRi 100 nM
  Response: 1.58 and 1.38 and 1.33
GEM 3000 nM + ATRi 300 nM
  Response: 1.46 and 1.27
ASPC1, 72 h, AsPC1, Experiment ATRi (ATR inhibitor alone), single replicates R1-R3
  EC50: 647 nM
ASPC1, 72 h, read-out: EC50 (cell growth), ATR inhibitor as single agent
  EC50: 766 nM
ASPC1, 72 h, read-out: EC50 mean [nM], AsPC1, Experiment ATRi (ATR inhibitor alone), mean of replicates
  EC50: 719 nM
ASPC1, 72 h, read-out: pEC50, AsPC1 (converted), Experiment ATRi (ATR inhibitor alone), single replicates R1-R3
  EC50: 646 nM
ASPC1, read-out: EC50 mean [nM], AsPC1, Experiment ATRi (ATR inhibitor alone), mean of replicates
  EC50: 719 nM
